According to ChEMBL document CHEMBL5154826, “Discovery of the Clinical Candidate MAK683: An EED-Directed, Allosteric, and Selective PRC2 Inhibitor for the Treatment of Advanced Malignancies” (J Med Chem, 2022):
In brackets after ≈: the same amount, converted by molar mass.

What was measured:
[1] = Oral bioavailability in Sprague-Dawley rat at 2 mg/kg; format: ADME, organism-based; settings: in vivo
Cytochrome P450 2C9 = Cytochrome P450 2C9 (Homo sapiens, UniProt P11712); assay: Inhibition of CYP2C9 in human liver microsomes using diclofenac as substrate incubated for 10 mins in presence of NADPH by LC-MS/MS analysis; format: ADME, Microsome
[2] = Antitumor activity against human Karpas-422 cells xenografted Athymic BALB/c nude mouse assessed as inhibition of tumor growth at 300 mg/kg, po for 23 days; format: functional; design: scale not given: the % may be the effect or the level left; settings: time 23 day
[3] = In vivo inhibition of PRC2 in PBMC collected from human Karpas-422 cells xenografted Athymic NTac:NIH-Whn nude rat assessed as reduction in H3K27me3 level at 3 mg/kg, po, qd for 57 days measured after 4 hrs of last dose by FACS method; format: functional; design: scale not given: the % may be the effect or the level left; settings: time 57 day
[4] = Terminal half life in ICR (CD-1) mouse at 2 mg/kg, po or 1 mg/kg, iv after 1 week by LC-MS/MS analysis; format: ADME, organism-based; settings: in vivo, time 1 weeks, read-out: beta t1/2 (converted)
[5] = molecular target: 3',5'-cyclic-AMP phosphodiesterase 4D (Homo sapiens, UniProt Q08499); assay: Inhibition of human Phosphodiesterase 4D
[6] = Intrinsic clearance in dog hepatocytes measured per 10^6 cells; format: ADME, cell-based, Canis lupus familiaris, Hepatocyte; settings: read-out: CLH
[7] = Antitumor activity against human Karpas-422 cells xenografted Athymic BALB/c nude mouse assessed as inhibition of tumor growth at 3 to 100 mg/kg, po bid, for 30 days treatment started at twenty fifth day after cancer cell implantation and followed by stop dosing measured upto 70 days; format: functional; design: scale not given: the % may be the effect or the level left; settings: dose 3-100 mg/kg, time 30 day
[8] = Drugmetabolism in rat hepatocytes assessed as CYP3A4 mediated metabolite formation; format: ADME, cell-based, Hepatocyte
[9] = Terminal half life in Sprague-Dawley rat at 2 mg/kg, po or 1 mg/kg, iv after 1 week by LC-MS/MS analysis; format: ADME, organism-based; settings: in vivo, time 1 weeks, read-out: beta t1/2 (converted)
[10] = High throughput solubility of the compound at pH 1 after 16 to 24 hrs by MS/MS analysis; format: physicochemical; settings: buffer, time 16-24 hrs
[11] = Ratio of drug level in mouse blood to plasma; format: ADME, cell-free
[12] = Intrinsic clearance in mouse hepatocytes measured per 10^6 cells; format: ADME, cell-based, Hepatocyte; settings: read-out: CLH
[13] = Genotoxicity in Salmonella typhimurium TA98 in presence of S9 fraction by Ames test; format: toxicity, subcellular; settings: salmonella enterica subsp. enterica serovar typhimurium
Cytochrome P450 3A4 = Cytochrome P450 3A4 (Homo sapiens, UniProt P08684); assay: Inhibition of CYP3A4 in human liver microsomes using midazolam as substrate incubated for 10 mins in presence of NADPH by LC-MS/MS analysis; format: ADME, Microsome
[14] = High throughput solubility of the compound in SGF after 16 to 24 hrs by MS/MS analysis; format: physicochemical; settings: time 16-24 hrs
[15] = molecular target: Voltage-gated inwardly rectifying potassium channel KCNH2 (Homo sapiens, UniProt Q12809); assay: Inhibition of hERG potassium channel in HEK293 cells by manual patch clamp assay; format: toxicity, cell-based
[16] = Dose normalized Cmax in ICR (CD-1) mouse at 2 mg/kg, po or 1 mg/kg, iv after 1 week by LC-MS/MS analysis; format: ADME, organism-based; settings: in vivo, 168 h, time 1 weeks
NIH3T3 = assay: Phototoxicity in mouse 3T3 cells by neutral red uptake assay; format: toxicity, cell-based
[17] = molecular target: T1, Alpha-2A adrenergic receptor (Homo sapiens, UniProt P08913); assay: Agonist activity at adrenergic receptor alpha2a (unknown origin); format: functional
T1 sequence (P08913 whole entry): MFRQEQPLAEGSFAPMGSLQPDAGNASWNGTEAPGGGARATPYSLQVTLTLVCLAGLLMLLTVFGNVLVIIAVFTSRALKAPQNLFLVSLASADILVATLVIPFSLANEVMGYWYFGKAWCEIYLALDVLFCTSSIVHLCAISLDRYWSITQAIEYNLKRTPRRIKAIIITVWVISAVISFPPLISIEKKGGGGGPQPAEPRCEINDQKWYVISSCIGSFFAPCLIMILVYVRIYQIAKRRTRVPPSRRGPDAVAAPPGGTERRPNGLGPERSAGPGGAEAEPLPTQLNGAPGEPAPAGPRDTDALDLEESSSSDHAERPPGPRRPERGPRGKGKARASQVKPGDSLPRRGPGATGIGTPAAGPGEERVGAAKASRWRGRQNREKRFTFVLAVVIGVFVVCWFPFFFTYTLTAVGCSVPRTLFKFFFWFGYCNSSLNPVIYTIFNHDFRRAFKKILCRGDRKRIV

[18] = Toxicity in Athymic NTac:NIH-Whn nude rat xenografted with human Karpas-422 cells assessed as reduction in body weight at 60 mg/kg, po, qd measured upto 140 days; format: organism-based; settings: in vivo, 3360 h, time < 140 day
[19] = molecular target: T2, Muscarinic acetylcholine receptor M2 (Homo sapiens, UniProt P08172); assay: Agonist activity at muscarinic M2 receptor (unknown origin); format: functional
T2 sequence (P08172 whole entry): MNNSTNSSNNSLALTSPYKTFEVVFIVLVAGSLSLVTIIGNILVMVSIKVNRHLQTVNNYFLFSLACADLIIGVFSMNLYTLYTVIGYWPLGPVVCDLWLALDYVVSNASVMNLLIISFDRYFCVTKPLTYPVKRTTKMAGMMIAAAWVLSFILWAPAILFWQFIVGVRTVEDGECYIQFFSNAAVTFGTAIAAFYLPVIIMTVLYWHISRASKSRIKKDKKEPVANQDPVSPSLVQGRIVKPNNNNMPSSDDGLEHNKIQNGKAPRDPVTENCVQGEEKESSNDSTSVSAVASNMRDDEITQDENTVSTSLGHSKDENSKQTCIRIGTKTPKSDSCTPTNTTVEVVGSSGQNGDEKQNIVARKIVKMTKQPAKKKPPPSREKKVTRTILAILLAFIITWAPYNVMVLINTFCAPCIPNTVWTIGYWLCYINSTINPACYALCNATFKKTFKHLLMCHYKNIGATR

[20] = High throughput solubility of the compound in FaSSIF after 16 to 24 hrs by MS/MS analysis; format: physicochemical; settings: time 16-24 hrs
[21] = Dose normalized AUC in Sprague-Dawley rat at 2 mg/kg, po or 1 mg/kg, iv after 1 week by LC-MS/MS analysis; format: ADME, organism-based; settings: in vivo, 168 h, time 1 weeks
[22] = Metabolic stability in dog microsomes assessed as intrinsic clearance; format: ADME, Canis lupus familiaris, Microsome; settings: read-out: CLH
[23] = Metabolic stability in human microsomes assessed as intrinsic clearance; format: ADME, Microsome; settings: read-out: CLH
[24] = Antitumor activity against human Karpas-422 cells xenografted Athymic BALB/c nude mouse assessed as inhibition of tumor growth at 100 mg/kg, po for 26 days; format: functional; design: scale not given: the % may be the effect or the level left; settings: time 26 day
[25] = Ratio of drug level in dog blood to plasma; format: ADME, cell-free, Canis lupus familiaris; settings: whole blood
[26] = Plasma clearance in dog; format: ADME, cell-free, Canis lupus familiaris
[27] = Volume of distribution at steady state ICR (CD-1) mouse at 2 mg/kg, po or 1 mg/kg, iv after 1 week by LC-MS/MS analysis; format: ADME, organism-based; settings: in vivo, 168 h, time 1 weeks
[28] = Unbound plasma concentration in Athymic BALB/c nude mouse xenografted with human Karpas-422 cells at 10 to 300 mg/kg, po after 12 hrs by HPLC-MS/MS analysis; format: ADME, organism-based; settings: in vivo, dose 10-300 mg/kg

Sequence of Voltage-gated inwardly rectifying potassium channel KCNH2 (Q12809 whole entry): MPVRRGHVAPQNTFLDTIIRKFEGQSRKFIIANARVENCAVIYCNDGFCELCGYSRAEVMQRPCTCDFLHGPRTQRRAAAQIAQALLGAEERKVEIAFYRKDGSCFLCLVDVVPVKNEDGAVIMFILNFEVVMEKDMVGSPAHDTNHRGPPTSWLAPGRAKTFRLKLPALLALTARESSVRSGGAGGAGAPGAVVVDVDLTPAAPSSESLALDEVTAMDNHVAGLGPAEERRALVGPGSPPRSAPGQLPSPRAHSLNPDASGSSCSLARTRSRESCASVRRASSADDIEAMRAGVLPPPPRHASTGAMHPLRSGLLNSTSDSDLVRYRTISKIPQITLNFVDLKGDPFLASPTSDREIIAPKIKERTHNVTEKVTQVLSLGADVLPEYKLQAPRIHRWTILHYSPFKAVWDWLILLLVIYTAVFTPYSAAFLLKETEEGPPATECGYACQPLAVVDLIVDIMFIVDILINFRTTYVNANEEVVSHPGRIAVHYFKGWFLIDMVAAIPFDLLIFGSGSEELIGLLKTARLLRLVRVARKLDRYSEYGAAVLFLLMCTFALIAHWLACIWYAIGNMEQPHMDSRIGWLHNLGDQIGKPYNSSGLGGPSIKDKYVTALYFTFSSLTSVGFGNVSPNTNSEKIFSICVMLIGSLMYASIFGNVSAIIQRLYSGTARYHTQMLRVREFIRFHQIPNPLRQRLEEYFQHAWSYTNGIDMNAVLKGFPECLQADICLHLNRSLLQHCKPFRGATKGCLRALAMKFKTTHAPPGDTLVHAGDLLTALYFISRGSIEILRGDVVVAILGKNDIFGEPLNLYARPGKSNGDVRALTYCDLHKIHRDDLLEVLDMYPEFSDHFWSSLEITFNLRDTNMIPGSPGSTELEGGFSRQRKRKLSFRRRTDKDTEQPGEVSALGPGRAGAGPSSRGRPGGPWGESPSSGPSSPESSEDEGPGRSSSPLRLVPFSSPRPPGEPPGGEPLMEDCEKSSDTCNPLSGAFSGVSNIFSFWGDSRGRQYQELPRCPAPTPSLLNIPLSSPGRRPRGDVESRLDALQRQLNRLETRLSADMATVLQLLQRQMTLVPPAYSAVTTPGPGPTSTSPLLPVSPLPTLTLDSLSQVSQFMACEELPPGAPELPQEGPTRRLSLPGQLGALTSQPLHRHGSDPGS
Sequence of Cytochrome P450 2C9 (P11712 whole entry): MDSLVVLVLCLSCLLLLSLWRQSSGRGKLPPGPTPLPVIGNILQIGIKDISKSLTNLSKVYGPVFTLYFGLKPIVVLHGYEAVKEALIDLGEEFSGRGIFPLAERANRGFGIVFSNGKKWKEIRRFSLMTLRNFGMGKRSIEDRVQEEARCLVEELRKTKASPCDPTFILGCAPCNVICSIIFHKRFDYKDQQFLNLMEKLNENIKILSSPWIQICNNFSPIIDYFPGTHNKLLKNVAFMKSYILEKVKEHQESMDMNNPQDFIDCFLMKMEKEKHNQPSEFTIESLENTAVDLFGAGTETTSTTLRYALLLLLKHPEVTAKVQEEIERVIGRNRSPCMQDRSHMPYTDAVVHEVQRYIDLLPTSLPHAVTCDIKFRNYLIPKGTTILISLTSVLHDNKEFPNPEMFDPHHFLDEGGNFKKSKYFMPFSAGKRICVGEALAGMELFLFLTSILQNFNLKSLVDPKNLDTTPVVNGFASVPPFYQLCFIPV
Sequence of 3',5'-cyclic-AMP phosphodiesterase 4D (Q08499 whole entry): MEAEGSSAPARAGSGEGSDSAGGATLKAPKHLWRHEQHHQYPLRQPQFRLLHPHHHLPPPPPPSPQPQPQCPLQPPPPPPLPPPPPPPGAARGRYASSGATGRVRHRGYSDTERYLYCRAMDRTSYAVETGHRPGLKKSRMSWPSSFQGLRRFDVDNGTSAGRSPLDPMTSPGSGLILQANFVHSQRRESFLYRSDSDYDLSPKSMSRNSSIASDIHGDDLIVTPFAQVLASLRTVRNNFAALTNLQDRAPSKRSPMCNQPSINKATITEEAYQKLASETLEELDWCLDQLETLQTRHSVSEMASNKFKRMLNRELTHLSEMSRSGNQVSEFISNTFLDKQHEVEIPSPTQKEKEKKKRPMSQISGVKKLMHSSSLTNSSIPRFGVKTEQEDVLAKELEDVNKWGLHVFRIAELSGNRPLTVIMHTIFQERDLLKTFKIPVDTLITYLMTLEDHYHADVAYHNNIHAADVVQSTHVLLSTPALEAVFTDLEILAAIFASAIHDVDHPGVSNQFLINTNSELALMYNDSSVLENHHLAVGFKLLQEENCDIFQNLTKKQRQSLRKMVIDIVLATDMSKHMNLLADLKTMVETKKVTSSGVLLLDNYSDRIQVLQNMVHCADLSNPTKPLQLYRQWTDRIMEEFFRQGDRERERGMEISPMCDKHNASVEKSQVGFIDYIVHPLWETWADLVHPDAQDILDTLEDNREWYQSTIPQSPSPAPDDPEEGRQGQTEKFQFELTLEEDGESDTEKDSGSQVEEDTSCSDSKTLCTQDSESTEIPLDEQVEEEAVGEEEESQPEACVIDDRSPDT
Sequence of Cytochrome P450 3A4 (P08684 whole entry): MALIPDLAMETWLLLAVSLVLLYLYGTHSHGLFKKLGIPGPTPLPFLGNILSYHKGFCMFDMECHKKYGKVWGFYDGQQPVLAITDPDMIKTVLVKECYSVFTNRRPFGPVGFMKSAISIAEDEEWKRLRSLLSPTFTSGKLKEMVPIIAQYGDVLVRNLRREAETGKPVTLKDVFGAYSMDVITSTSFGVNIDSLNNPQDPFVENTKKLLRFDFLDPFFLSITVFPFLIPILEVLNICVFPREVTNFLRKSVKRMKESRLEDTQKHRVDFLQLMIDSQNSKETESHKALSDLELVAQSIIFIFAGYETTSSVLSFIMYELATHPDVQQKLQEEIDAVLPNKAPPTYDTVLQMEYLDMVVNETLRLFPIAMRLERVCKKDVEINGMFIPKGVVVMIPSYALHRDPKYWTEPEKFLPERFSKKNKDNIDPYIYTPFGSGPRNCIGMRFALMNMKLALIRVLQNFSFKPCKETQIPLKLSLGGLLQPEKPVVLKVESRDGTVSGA

Cc1ncccc1-c1cnc(NCc2c(F)ccc3c2CCO3)n2cnnc12
bioavailability [1]: 69% | IC50 (Cytochrome P450 2C9): > 20 µM | Activity [2]: 100% | Activity [3]: 80% | half-life [4]: 1.5 h | IC50 [5]: 6.4 µM | hepatocyte CLint [6]: 4.8 µL/min/1e6 cells | Activity [7]: 100% | Drug metabolism [8]: Metabolite_Detected | half-life [9]: 3.2 h | solubility [10]: > 13 mM | blood plasma ratio [11]: 1.03 | hepatocyte CLint [12]: 3.9 µL/min/1e6 cells | Activity [13]: Non-Toxic | IC50 (Cytochrome P450 3A4): > 20 µM | solubility [14]: 8.74 mM (≈ 3290 µg/mL) | IC50 [15]: > 30 µM | Cmax/dose [16]: 356 nM | Activity (NIH3T3): Non-Toxic | IC50 [17]: 9.6 µM | Activity [18]: Toxic | IC50 [19]: 8.9 µM | solubility [20]: 0.025 mM (≈ 9.41 µg/mL) | AUC/dose [21]: 2939 nM·h | microsomal CLint [22]: 91 µL/min/mg | microsomal CLint [23]: 33 µL/min/mg | Activity [24]: 100% | blood plasma ratio [25]: 0.72 | clearance [26]: 13 mL/min/kg | Vdss [27]: 3.5 L/kg | Cp(f) [28]: 8 nM
